From PMC7617459, “Comparative Evaluation and Profiling of Chemical Tools for the Nuclear Hormone Receptor Family 2” (ACS pharmacology & translational science, 2025)
pEC50, pIC50, pKd: −log10 of the molar value.

Experiments:
MBP-NR2E1-LBD = test system: MBP-NR2E1-LBD; design: method as in PMID 35508617; details: MS-based binding experiment; cited from earlier work
nuclear receptors = assay: Selectivity profiling in Gal4-hybrid reporter gene assay panel; type: cell-based, human; details: at active concentration
Procedure: Compounds were tested at concentrations around EC90 according to the literature or at the highest nontoxic concentration (from the multiplex toxicity assay). […] (b) Selectivity profiling of NR2 modulators in a representative panel of nuclear receptors outside the NR2 family. […] Effects <5% of the respective reference ligands were considered as not relevant and omitted. Only effects are shown that are statistically significant against VP16 ctrl (Figure S3); n = 3.
HEK293T cells (German Collection of Microorganisms and Cell Culture GmbH, DSMZ) were cultured in Dulbecco’s modified Eagle’s medium (DMEM), high glucose supplemented with 10% fetal calf serum (FCS), sodium pyruvate (1 mM), penicillin (100 U/mL), and streptomycin (100 μg/mL) at 37 °C and 5% CO2 and seeded in 96-well plates (3 × 10^4 cells/well). The medium was changed to Opti-MEM without supplements, and the cells were transiently transfected with one pFA-CMV-hNR-LBD clone, pFR-Luc, and pRL-SV40 using Lipofectamine LTX reagent (Invitrogen, Thermo Fisher Scientific) according to the manufacturer’s instructions. Five hours after transfection, cells were incubated with the test compounds in Opti-MEM supplemented with penicillin (100 U/mL), streptomycin (100 μg/mL), and 0.1% DMSO. Each sample was set up in duplicates and tested in at least three independent experiments. After 16 h incubation, luciferase activity was measured using the Dual-Glo Luciferase Assay System (Promega) according to the manufacturer’s protocol on a Tecan Spark luminometer (Tecan Deutschland GmbH, Crailsheim, Germany). Firefly luminescence was divided by Renilla luminescence and multiplied by 1000 resulting in relative light units (RLUs) to normalize for transfection efficiency and cell growth. Fold activation was obtained by dividing the mean RLU of the test compound by the mean^a RLU of the untreated control, and relative activation was calculated by dividing the fold activation of a test sample by the fold activation of the respective reference agonist. Antagonistic effects were evaluated by coincubation of the test compound with the respective reference ligand.

[1] = biological target: PNR mutations associated with Enhanced S-Cone Syndrome (ESCS); design: method as in PMID 35508617; details: cited from earlier work
PNR protein levels = test system: PNR protein levels; design: method as in PMID 35508617, PMID 19379737; details: retinoblastoma cells, 1 µM, Western blot; cited from earlier work
MBP-PNR-LBD = biological target: MBP-PNR-LBD; design: method as in PMID 35508617; details: determined by UV absorption; cited from earlier work
COS-7 cells = assay: Multiplex toxicity assay; type: cell-based; details: 24 h, at active concentration
Procedure: COS-7 cells (DSMZ #ACC 60) were cultured at 37°C and 5% CO2 in DMEM high glucose medium supplemented with sodium pyruvate (1 mM), penicillin (100 U/mL), streptomycin (100 µg/mL), and 10% fetal calf serum (FCS). After aspirating the wells, the cells were seeded at 1x10^5 cells per well in complete culture medium. […] Each sample was prepared in at least 4 biologically independent replicates. After incubation for 24 h, the wells were aspirated and incubated for 30 min with stimulation medium containing 1 µM NucView® 405 fluorogenic caspase-3 substrate (#10405, Biotium, Fremont, USA) and Live-or-Dye Nuc-Fix Red (0.05x, Biotium, Inc., Fremont, CA, 1691 USA) to detect apoptosis and necrosis, respectively. After incubation, a total of 6 fluorescence images per well at 10x magnification were taken to detect NucView®-positive (Ex: 381–400 nm, Em: 414–450 nm) and Live-or-Dye-positive cells (Ex: 543−566 nm, Em: 580−611 nm) using on a Tecan Spark Cyto (Tecan Group AG). Reference readings for background correction and detection of auto-fluorescence were taken at 414–450 nm prior to staining. Thereafter, wells were aspirated, the cells were incubated for 3 h with 90 µL culture medium (0.2% FCS) and 10 µL Cell Counting Kit-8 solution (CCK-8, MedChem Express #HY-K0301), and absorbance was measured at 1, 2, and 3h of incubation at 450 nm on a Tecan Spark Cyto to assess metabolic activity of the cells. Before drug administration, after the first medium exchange, 24 h after drug administration, and after fluorescence imaging cell confluence was assessed using the Tecan Spark Cyto, to account for changes in cell confluence due to drug administration and cell handling. The number of apoptotic cells, metabolic activity, and changes in cell confluence in response to drug treatment were all normalized to the vehicle control of each biological replicate individually.

PNR = test system: PNR; design: method as in PMID 35508617; details: cited from earlier work
ATF6 = ATF6 activity assay; type: cell-based; details: tunicamycin treated Hela ATF6 reporter cells
Source text: Next, we evaluated the potential impact of the NR2 modulator set on endoplasmic reticulum (ER) stress in an ATF6 activity assay (Fig. 4b). The activating transcription factor 6 (ATF6) participates in the unfolded protein response and is activated under ER stress.[164] Tunicamycin-induced ATF6 activity was not affected by RXR and TLX modulators but was reduced by the inverse PNR agonists 22 and 23.
Hela cells containing a Renilla luciferase reporter gene for ATF6 activity (ATF6 Leeporter™ Luciferase Reporter-HeLa Cell Line, Abeomics Inc.; #14-138ACL) were cultured in DMEM supplemented with 10% heat-inactivated FCS, penicillin (100 U/mL), streptomycin (100 μg/mL) and puromycin (3 µg/mL) at 37°C and 5% (v/v) CO2 and seeded in 96-well plates (1 × 10^5 per well). After 24 h, the cells were incubated with the test compounds solubilized with 0.1% DMSO in the same medium without puromycin. After 4 h of incubation, tunicamycin (100 ng/mL) was added. After another 18 h of incubation, cells were assayed for renilla luminescence using DualGlo reagent (Promega) on a Tecan SPARK Cyto (Tecan). Test samples were normalized to the 0.1% DMSO control.

HNF4α [2] = test system: HNF4α; design: method as in PMID 33114319; details: reporter gene assay; cited from earlier work
[3] = test system: fructose-1,6-bisphosphatase 1 (FBP1); design: method as in PMID 33114319; details: HepG2 cells; cited from earlier work
HNF4α [4] = biological target: HNF4α; design: method as in PMID 33114319; details: ITC; cited from earlier work

selectivity over other nuclear receptors (nuclear receptors) | Compound | interaction with MBP-NR2E1-LBD (TLX) (MBP-NR2E1-LBD) | pKd [1] | PNR protein levels (PNR protein levels) | pKd (MBP-PNR-LBD) | cytotoxicity (COS-7 cells) | PNR activation (PNR; reporter gene assay in 293F cells) | pEC50 (PNR; reporter gene assay) | tunicamycin-induced ATF6 activity (ATF6) | pIC50 (HNF4α [2]) | expression of HNF4 target gene FBP1 [3] | pKd (HNF4α [4])
Favorable selectivity profiles | C=CC1=C(C)/C(=C/C2=NC(=C\c3[nH]c(/C=C4\NC(=O)C(C)=C4C=C)c(C)c3CCC(=O)O)/C(CCC(=O)O)=C2C)NC1=O [compound 25, biliverdin] | no interaction | 5.05 | two-fold increase | 6.70 | lack of cytotoxicity | approximately 3 fold | 8.30 | slightly diminished | – | – | –
– | OC(c1ccc(F)cc1)c1ccc(F)cc1 [compound 5] | – | – | – | – | – | – | – | – | 4.62 | diminished expression | 5.77
